Test results from patent US9084420B2, “Amide derivative, pest control agent containing the amide derivative, and pest controlling method” (Mitsui Chemicals Agro, Inc., priority 2008, dated 2015).

Assays:
Assay type in all cases: in vivo
Spodoptera litura [1] = test: Pesticidal test of penetration migration against Spodoptera litura (radish seedling root immersion); settings: 72 h, radish seedling root immersed 2 days, leaf fed to 2-stage larvae, 25° C., after 3 days, read-out: pesticidal rate
Experimental: Pesticidal Test of Penetration Migration against Spodoptera litura A root portion of a radish seedling was immersed for 2 days in a chemical solution in which a test compound had been diluted at a predetermined concentration, then the leaf was cut and put into a 7 cm polyethylene cup having a filter paper laid on the bottom thereof, and 2-stage larvae of Spodoptera litura were released. They were left to stand in a thermostatic chamber at 25° C., and the numbers of the living pests and the dead pests were examined after 3 days. The test was carried out with five larvae per group in two replicates.

Spodoptera litura [2] = test: Pesticidal test against Spodoptera litura (cabbage leaf immersion); settings: 144 h, 2-stage larvae on treated cabbage leaf, 25° C., after 6 days, read-out: pesticidal rate
Plutella xylostella = test: Pesticidal test against Plutella xylostella (cabbage leaf immersion); settings: 144 h, 3-stage larvae on treated cabbage leaf, 25° C., after 6 days, read-out: pesticidal rate
Musca domestica = test: Pesticidal test against Musca domestica (petri dish residue); settings: 24 h, acetone solution dried in petri dish, female adults, 25° C., after 1 day, read-out: pesticidal rate
Experimental: Pesticidal Test Against Musca domestica
1 ml of an acetone solution in which a test compound had been diluted at a predetermined concentration was added dropwise to a petri dish having a diameter of 9 cm, and air-dried, and then the female adults of Musca domestica were released and the petri dish was capped. They were left to stand in a thermostatic chamber at 25° C., and the numbers of the living pests and the dead pests were examined after 1 day. The test was carried out with […] in two replicates.

NC(=O)CCN(C(=O)c1ccccc1)c1cccc(C(=O)Nc2c(Br)cc(C(F)(C(F)(F)F)C(F)(F)F)cc2C(F)(F)F)c1F [1-171, 3-(N-(3-amino-3-oxopropyl)benzamide)-N-(2-bromo-4-(perfluoropropan-2-yl)-6-(trifluoromethyl)phenyl)-2-fluorobenzamide]
≥ 70%: pest or weed control at 1 ppm (Spodoptera litura [1]) | pest or weed control at 100 ppm (Spodoptera litura [2]) | pest or weed control at 100 ppm (Plutella xylostella)

NC(=O)CCN(C(=O)c1ccccc1)c1cccc(C(=O)Nc2c(Br)cc(C(F)(C(F)(F)F)C(F)(F)F)cc2Br)c1F [1-163, 3-(N-(3-amino-3-oxopropyl)benzamide)-N-(2,6-dibromo-4-(perfluoropropan-2-yl)phenyl)-2-fluorobenzamide]
≥ 70%: pest or weed control at 1 ppm (Spodoptera litura [1]) | pest or weed control at 100 ppm (Spodoptera litura [2]) | pest or weed control at 100 ppm (Plutella xylostella)

Cc1cc(C(F)(C(F)(F)F)C(F)(F)F)cc(C)c1NC(=O)c1cccc(N(CCC(N)=O)C(=O)c2ccccc2)c1F [1-21, 3-(N-(3-amino-3-oxopropyl)benzamide)-N-(2,6-dimethyl-4-(perfluoropropan-2-yl)phenyl)-2-fluorobenzamide]
≥ 70%: pest or weed control at 1 ppm (Spodoptera litura [1]) | pest or weed control at 100 ppm (Spodoptera litura [2]) | pest or weed control at 100 ppm (Plutella xylostella)

N#Cc1ccc(C(=O)N(CCS(N)(=O)=O)c2cccc(C(=O)Nc3c(Br)cc(C(F)(C(F)(F)F)C(F)(F)F)cc3Br)c2F)cc1 [2-133, 3-(4-cyano-N-(2-sulfamoylethyl)benzamide)-N-(2,6-dibromo-4-(perfluoropropan-2-yl)phenyl)-2-fluorobenzamide]
≥ 70%: pest or weed control at 1 ppm (Spodoptera litura [1]) | pest or weed control at 100 ppm (Spodoptera litura [2]) | pest or weed control at 100 ppm (Plutella xylostella)

CNC(=O)CCN(C(=O)c1ccccc1)c1cccc(C(=O)Nc2c(I)cc(C(F)(C(F)(F)F)C(F)(F)F)cc2C(F)(F)F)c1 [5-86, N-(3-(2-iodo-4-(perfluoropropan-2-yl)-6-(trifluoromethyl)phenylcarbamoyl)phenyl)-N-(3-(methylamino)-3-oxopropyl)benzamide]
≥ 70%: pest or weed control at 1 ppm (Spodoptera litura [1]) | pest or weed control at 100 ppm (Spodoptera litura [2]) | pest or weed control at 100 ppm (Plutella xylostella) | pest or weed control at 1000 ppm (Musca domestica)

N#Cc1ccc(C(=O)N(CCC(N)=O)c2cccc(C(=O)Nc3c(Br)cc(C(F)(C(F)(F)F)C(F)(F)F)cc3C(F)(F)F)c2F)cc1 [1-136, 3-(N-(3-amino-3-oxopropyl)-4-cyanobenzamide)-N-(2-bromo-4-(perfluoropropan-2-yl)-6-(trifluoromethyl)phenyl)-2-fluorobenzamide]
≥ 70%: pest or weed control at 1 ppm (Spodoptera litura [1]) | pest or weed control at 100 ppm (Spodoptera litura [2]) | pest or weed control at 100 ppm (Plutella xylostella) | pest or weed control at 1000 ppm (Musca domestica)

CC(=O)CCN(C(=O)c1ccccc1)c1cccc(C(=O)Nc2c(C)cc(C(F)(C(F)(F)F)C(F)(F)F)cc2C)c1 [5-100, N-(3-(2,6-dimethyl-4-(perfluoropropan-2-yl)phenylcarbamoyl)phenyl)-N-(3-oxobutyl)benzamide]
≥ 70%: pest or weed control at 100 ppm (Spodoptera litura [2]) | pest or weed control at 100 ppm (Plutella xylostella) | pest or weed control at 1000 ppm (Musca domestica)

CC(C)(C)OC(=O)C(CN(C(=O)c1cccc(C#N)c1)c1cccc(C(=O)Nc2c(Br)cc(C(F)(C(F)(F)F)C(F)(F)F)cc2Br)c1F)C(=O)OC(C)(C)C [6-44, di-tert-butyl 2-((3-cyano-N-(3-(2,6-dibromo-4-(perfluoropropan-2-yl)phenylcarbamoyl)-2-fluorophenyl)benzamide)methyl)malonate]
≥ 70%: pest or weed control at 100 ppm (Spodoptera litura [2]) | pest or weed control at 100 ppm (Plutella xylostella) | pest or weed control at 1000 ppm (Musca domestica)

N#Cc1cccc(C(=O)N(CCC(=O)NO)c2cccc(C(=O)Nc3c(Br)cc(C(F)(C(F)(F)F)C(F)(F)F)cc3Br)c2F)c1 [5-33, 3-(3-cyano-N-(3-(hydroxyamino)-3-oxopropyl)benzamide)-N-(2,6-dibromo-4-(perfluoropropan-2-yl)phenyl)-2-fluorobenzamide]
≥ 70%: pest or weed control at 1 ppm (Spodoptera litura [1]) | pest or weed control at 100 ppm (Spodoptera litura [2]) | pest or weed control at 100 ppm (Plutella xylostella)

CCOC(=O)NC(=O)CCN(C(=O)c1ccc(C#N)cc1)c1cccc(C(=O)Nc2c(Br)cc(C(F)(C(F)(F)F)C(F)(F)F)cc2C(F)(F)F)c1F [5-76, ethyl 3-(N-(3-(2-bromo-4-(perfluorophan-2-yl)-6-(trifluoromethyl)phenylcarbamoyl)-2-fluorophenyl)-4-cyanobenzamide)propanoylcarbamate]
≥ 70%: pest or weed control at 1 ppm (Spodoptera litura [1]) | pest or weed control at 100 ppm (Spodoptera litura [2]) | pest or weed control at 100 ppm (Plutella xylostella) | pest or weed control at 1000 ppm (Musca domestica)
